In patent US10709750B2, “Female menopause alleviation use of composition containing composite extract of red clover and pomegranate as active ingredient” (HLSCIENCE CO., LTD, priority 2014, dated 2020):
Marks after values point to notes of the source that are not given here.

Key:
Type in all cases: in vivo
Conditions in all cases: 120 mg/kg po; estradiol 0.03 μg/head sc
OVX ddY mice [1] = experiment: Femur weights in OVX ddY mice
Description: (§1) Optimal amounts of red clover extract or pomegranate extract were suspended or dissolved in sterile distilled water, and orally administered at a dose of 10 ml/kg once daily for 84 days from 28 days after OVX. That is, red clover extract and pomegranate extract single formula, and red clover:pomegranate extract 1:1, 1:2, 1:4, 1:6, 1:8, 2:1, 4:1, 6:1 and 8:1 (g/g) mixture 120 mg/kg were each orally administered for 84 days, and sham control and OVX control were orally administered with only sterile distilled water as a vehicle at the same dose for the same period instead of the test material, and according to earlier researchers' method [Chiba et al., 2003; Murakami et al., 2007; Tousen et al., 2011], 0.03 ug of 17β-estradiol (Sigma-Aldrich, St. Louise, Mo., USA) was dissolved in 0.2 ml of sterile saline, and subcutaneously administered to back skin at a dose of 0.2 ml/mouse (0.03 μg/head/day) once daily for 84 days from 28 days after OVX surgery (Table 15, FIG. 18). The administration dose of mixed formula was set higher 12 times than a human clinical dose of 600 mg, i.e., 600 mg/60 kg)×12=120 mg/kg, in consideration of a body surface area of mouse, and the dose of each of red clover extract and pomegranate extract single formula was also set as 120 mg/kg for direct comparative evaluation of efficacy.
(§2) The osteoporosis reduction effect was ascertained through histological changes in wet, dry and ash weights of femurs, BMD (FIG. 20), bone strength (FIG. 21), serum osteocalcin and bALP levels, bone mass and structure (trabecular bone mass, trabecular bone number, thickness and length, and cortical bone thickness), and bone resorption (osteoclast cell number and osteoclast cell surface (OS/BS)).

OVX ddY mice [2] = experiment: Serum biochemistry in OVX ddY mice
Description: as §1
(§3) More specifically, the anti-obesity and estrogen-like effects were tested as follows. The body weights on OVX surgery date, 1 day before administration (27 days after OVX), the start date of administration, and from the first day after start of administration up to the time of final sacrifice at least once a week were each recorded, and change amounts of body weights, i.e., body weight gains, for the recovery period after OVX (menopausal disorder induction period) and 12 weeks after start of administration were measured. Food consumption (1, 3, 7, 28, 56 and 83 days after start of administration), serum estradiol levels, amounts of body fat and abdominal fat, weights of abdominal fat pad and uterus, histological changes of uterus and abdominal fat pads (changes in abdominal fat pad thickness and mean adipocyte diameter, thickness of uterus total, epithelium and mucosa, and percentage of uterine glands in the mucosa (FIG. 19) were observed.
(§4) Furthermore, to ascertain the protective effect against fatty liver, testing was conducted as follows. Liver weight, serum AST and ALT levels, and histological changes of liver (changes in mean hepatocyte diameter and region with hepatic degeneration showing fatty change) were observed.
The hyperlipidemia inhibitory effect was ascertained through changes in serum TC, LDL, HDL and TG levels.
as §2

OVX ddY mice [3] = experiment: Body weight and food consumption in OVX ddY mice, once daily for 84 days
Description: That is, the experiment was performed after dividing into sterile distilled water 10 ml/kg administered vehicle control after sham surgery (hereinafter sham control), sterile distilled water 10 ml/kg administered vehicle control after OVX surgery (hereinafter OVX control), pomegranate extract single formula 120 mg/kg administered group (PCP) after OVX, and 9 types of red clover:pomegranate extract mixed formula (g/g) administered groups after OVX surgery including red clover:pomegranate extract 1:1 (g/g) mixed formula 120 mg/kg administered group after OVX surgery (1-1), red clover:pomegranate extract 1:2 (g/g) mixed formula 120 mg/kg administered group after OVX surgery (1-2), red clover:pomegranate extract 1:4 (g/g) mixed formula 120 mg/kg administered group after OVX surgery (1-4), red clover:pomegranate extract 1:6 (g/g) mixed formula 120 mg/kg administered group after OVX surgery (1-6), red clover:pomegranate extract 1:8 (g/g) mixed formula 120 mg/kg administered group after OVX surgery (1-8), red clover:pomegranate extract 2:1 (g/g) mixed formula 120 mg/kg administered group after OVX surgery (2-1), red clover:pomegranate extract 4:1 (g/g) mixed formula 120 mg/kg administered group after OVX surgery (4-1), red clover:pomegranate extract 6:1 (g/g) mixed formula 120 mg/kg administered group after OVX surgery (6-1), and red clover:pomegranate extract 8:1 (g/g) mixed formula 120 mg/kg administered group after OVX surgery (8-1).
as §1
That is, all experimental animals except sham control were randomly selected and underwent bilateral ovariectomy to induce estrogen deficient menopausal disorder. On the other hand, in sham operated group, both ovaries were detected by the same method but incisions were not made, and abdominal cavities were closed again. At 27 days after surgery, based on body weights (OVX mice: 30.71±1.65 g, 28.0-35.1 g; sham operated mice: 26.99±1.46 g, 24.4-28.7 g), 8 mice per group were selected from all experimental animals including sham operated group, and used for experiments.
More specifically, the anti-obesity and estrogen-like effects were tested as follows. The body weights on OVX surgery date, 1 day before administration (27 days after OVX), the start date of administration, and from the first day after start of administration up to the time of final sacrifice at least once a week were each recorded, and change amounts of body weights, i.e., body weight gains, for the recovery period after OVX (menopausal disorder induction period) and 12 weeks after start of administration were measured. […]

OVX ddY mice [4] = experiment: Bone mineral density and fat density (DEXA) in OVX ddY mice
Description: as §1, §3, §2

OVX ddY mice [5] = experiment: Femur histomorphometry in OVX ddY mice
Description: as §1, §2

OVX ddY mice [6] = experiment: Abdominal fat pad, uterus and liver weights in OVX ddY mice
Description: as §1, §3, §4

OVX ddY mice [7] = experiment: Histology of abdominal fat pad, uterus and liver in OVX ddY mice
Description: as §1, §3, §4

OVX ddY mice [8] = experiment: Femur bone strength (failure load) in OVX ddY mice
Description: Bone strength is measured through failure load (FL).
as §1, with “efficacy. […]” for “efficacy.”

## C[C@]12CC[C@@H]3c4ccc(O)cc4CC[C@H]3[C@@H]1CC[C@@H]2O [Estradiol, 17β-estradiol]
OVX ddY mice [1]
  Change in femur absolute ash weight vs OVX control: 30.35%
  Change in femur absolute dry weight vs OVX control: 14.93%
  Change in femur absolute wet weight vs OVX control: 5.79%
  Change in femur relative ash weight vs OVX control: 57.03%
  Change in femur relative dry weight vs OVX control: 38.22%
  Change in femur relative wet weight vs OVX control: 27.75%
  Femur absolute ash weight: 0.033 ± 0.002^ac g
  Femur absolute dry weight: 0.058 ± 0.004^gi
  Femur absolute wet weight: 0.094 ± 0.007 g
  Femur relative ash weight: 0.092 ± 0.007^ac % of body weight
  Femur relative dry weight: 0.162 ± 0.016^gi % of body weight
  Femur relative wet weight: 0.264 ± 0.032^ac % of body weight
OVX ddY mice [2]
  Change in serum AST level vs OVX control (first series): −33.98%
  Change in serum AST level vs OVX control (second series): −31.58%
  Change in serum HDL level vs OVX control: 52.09%
  Change in serum LDL level vs OVX control: −26.87%
  Change in serum TC level vs OVX control: −25.94%
  Change in serum TG level vs OVX control: −34.80%
  Change in serum bALP level vs OVX control: 39.72%
  Change in serum estradiol level vs OVX control: 185.69%
  Change in serum osteocalcin level vs OVX control: −31.95%
  Serum ALT: 52.00 ± 10.03^ac U/L
  Serum AST: 107.13 ± 12.43^ac U/L
  Serum HDL: 72.63 ± 11.04^ac mg/dl
  Serum LDL: 133.00 ± 10.54^ac mg/dl
  Serum TC: 132.75 ± 21.06^ac mg/dl
  Serum TG: 97.88 ± 18.16^ac mg/dl
OVX ddY mice [3]
  Body weight at sacrifice: 35.68 ± 2.19^ab g
  Body weight gain, treatment [D-C]: 6.96 ± 1.21^fg
  Change in body weight gain for duration of administration vs OVX control: −52.56%
  Change in food consumption vs OVX control, day 1: 0.87%
  Change in food consumption vs OVX control, day 3: −5.24%
  Change in food consumption vs OVX control, day 7: −13.04%
  Change in food consumption vs OVX control, day 28: −16.34%
  Change in food consumption vs OVX control, day 56: −20.01%
  Change in food consumption vs OVX control, day 83: −27.82%
  Food consumption, day 1: 11.49 ± 1.41^a g/24 hrs/rat
  Food consumption, day 3: 10.53 ± 0.93^a g/24 hrs/rat
  Food consumption, day 7: 9.82 ± 0.93^ac g/24 hrs/rat
  Food consumption, day 28: 9.52 ± 1.01^ab g/24 hrs/rat
  Food consumption, day 56: 10.24 ± 0.98^ab g/24 hrs/rat
  Food consumption, day 83: 10.65 ± 1.54^de g/24 hrs/rat
OVX ddY mice [4]
  Bone mineral density, right femur: 0.0259 ± 0.0008^bc g/cm^2
  Bone mineral density, total body: 0.0237 ± 0.0004^ac g/cm^2
  Change in amount of abdominal fat vs OVX control: −35.00%
  Change in amount of body fat vs OVX control: −33.02%
  Change in mean total body bone mineral density vs OVX control: 9.86%
  Change in total femur bone mineral density vs OVX control: 10.78%
  Fat density, abdominal cavity: 26.75 ± 4.22^ac % of body mass
  Fat density, total body: 23.42 ± 4.24^ac % of body mass
OVX ddY mice [5]
  Change in femur OS/BS vs OVX control: −37.50%
  Change in femur cortical bone thickness vs OVX control: 21.85%
  Change in femur mean trabecular bone number vs OVX control: 92.68%
  Change in femur osteoclast cell number vs OVX control: −55.15%
  Change in femur trabecular bone mass vs OVX control: 73.01%
  Change in mean length of femur trabecular bone vs OVX control: 89.04%
  Change in mean thickness of femur trabecular bone vs OVX control: 70.56%
  Left femur Cbt: 184.17 ± 8.40^eg
  Left femur OS/BS: 13.12 ± 1.41^eg
  Left femur Ocn: 7.63 ± 1.06^ab
  Left femur TV/BV: 29.89 ± 5.24^ab
  Left femur Tbl: 905.51 ± 146.34^g
  Left femur Tbn: 9.88 ± 1.36^eg
  Left femur Tbt: 55.34 ± 8.99^eg
OVX ddY mice [6]
  Abdominal fat pad absolute wet-weight: 0.600 ± 0.536^bc g
  Abdominal fat pad relative wet-weight: 1.656 ± 1.432^bc % of body weight
  Change in abdominal fat pad absolute weight vs OVX control: −82.20%
  Change in abdominal fat pad relative weight vs OVX control: −78.86%
  Change in absolute liver weight vs OVX control: 5.37%
  Change in relative liver weight vs OVX control: 27.16%
  Change in uterus absolute weight vs OVX control: 288.64%
  Change in uterus relative weight vs OVX control: 372.56%
  Liver absolute wet-weight: 1.324 ± 0.073 g
  Liver relative wet-weight: 3.724 ± 0.307^c % of body weight
  Uterus absolute wet-weight: 0.107 ± 0.040^ac g
  Uterus relative wet-weight: 0.303 ± 0.124^ac % of body weight
OVX ddY mice [7]
  Change in abdominal fat pad thickness vs OVX control: −52.23%
  Change in mean adipocyte diameter vs OVX control: −48.06%
  Change in mean hepatocyte diameter vs OVX control: −42.21%
  Change in percentage of uterine glands in the uterine mucosa vs OVX control: 180.37%
  Change in region with hepatic fatty degeneration vs OVX control: −44.73%
  Change in uterine epithelium mean thickness vs OVX control: 170.17%
  Change in uterine mucosa mean thickness vs OVX control: 196.04%
  Change in uterus total mean thickness vs OVX control: 181.27%
  Hepatic steatosis regions: 43.43 ± 6.53^ac %
  Left uterine horn epithelium thickness: 20.75 ± 4.52^ac μm
  Left uterine horn mucosa layer thickness: 598.74 ± 153.51^ac μm
  Left uterine horn total thickness: 1593.32 ± 371.85^bc μm
  Mean adipocyte diameters: 67.49 ± 14.77^ac μm
  Mean hepatocyte diameters: 18.45 ± 3.66^ac μm
  Uterine gland regions: 34.93 ± 4.60^ac %
OVX ddY mice [8]
  Change in bone strength of femur mid-shaft region vs OVX control: 61.41%
